Experimental findings from PubChem BioAssay (NCI) are described below.

Experiment in all cases: DTP human tumour cell line panel, 48 h
The test system of assay [1] is MALME-3M melanoma.
Assay [2] relates to MCF7 breast.
The subject of assay [3] is EKVX NSCLC.
Assay [4] relates to HOP-92 NSCLC.
The test system of assay [5] is U251 CNS.
Assay [6] relates to SK-OV-3 ovarian.
In assay [7] the test system is OVCAR-5 ovarian.
Assay [8] relates to NCI-H23 lung.
Assay [9] has as its system K-562 leukemia.
The test system of assay [10] is RXF 393 renal.
Assay [11] deals with HCC-2998 colon.
Assay [12] deals with IGROV1 ovarian.
For assay [13], the system named is SF-539 CNS.

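Five concentrations, 48 hours, 96-well plates. TGI marks complete inhibition of growth.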 Some results are limits rather than exact numbers.

What is called TGI is the concentration giving total growth inhibition. A lower TGI goes with more potent growth arrest. For the compound `COc1ccc(OC)c(C2CCc3cnc4nc(N)nc(N)c4c3C2)c1` (stereo not drawn), the total growth inhibition concentration (TGI) in [1], in [2], in assay [3], in assay [4], in assay [5] and in assay [6] was over 100 µM in each case. Moreover, the TGI in assay [7] was over 100 µM; in assay [8], over 100 µM; in assay [9], over 100 µM; in assay [10] it was 83.3 µM; in assay [11], over 100 µM; in assay [12] it was over 100 µM.
In the case of `Cc1cc(S(=O)(=O)Nc2nc(N)n(C)n2)c(S)cc1Cl`, the TGI in [1], in assay [13], in [2], in assay [3], in [5] and in [6] was over 10 µM in each case. In addition, the TGI in [7], in assay [8], in [9], in [10], in assay [11] and in assay [12] was over 10 µM each time.
With `C=CCC1(O)c2cccc(O)c2C(=O)c2c(O)cccc21`, the TGI in assay [13] is over 100 µM; in assay [2] it was over 100 µM; in assay [3], 92.2 µM; in assay [4], 88.9 µM; in [5], 69.1 µM; in [7], over 100 µM. The TGI in assay [8] was 56.9 µM; in assay [9] it was over 100 µM; in [10], 53.4 µM; in assay [11] it was 43.7 µM; in assay [12], over 100 µM.
In the case of `Cc1cc2c3c(ccc4ncc(c43)CN2c2ccc(NS(C)(=O)=O)cc2)[nH]1`, the TGI was over 100 µM in [2]; over 100 µM in [3]; 92.2 µM in [4]; over 100 µM in [5]; 97.5 µM in assay [6]; over 100 µM in assay [7]. Also, the concentration for total growth inhibition (TGI) in assay [8], in assay [9], in assay [10], in assay [11] and in assay [12] was over 100 µM each time.
As for `Cn1ncc2c(NCCc3ccccc3)nc(Cl)nc21`, the total growth inhibition concentration (TGI) was over 100 µM in [1]; over 100 µM in [2]; 23.3 µM in [3]; 58.4 µM in assay [4]; over 100 µM in assay [5]; 71.7 µM in assay [6]. The TGI is 36.4 µM in assay [7]; over 100 µM in assay [8]; over 100 µM in [9]; over 100 µM in assay [10]; 40.3 µM in assay [11]; over 100 µM in assay [12].
For `COc1cc2c[n+](C)c3c4ccccc4ccc3c2cc1OC`, the TGI in [1] was 5.53 µM; in assay [13], 23.7 µM; in assay [2] it was over 100 µM; in assay [3], over 48.2 µM; in assay [5], 10.3 µM; in assay [6] it was 32.5 µM. The TGI was over 100 µM in assay [7]; 14.1 µM in [8]; 21.2 µM in assay [9]; 32.1 µM in assay [10]; 42.4 µM in [11].
As for `Cc1sc(N=Nc2c(O)[nH]c3ccccc23)nc1-c1ccccc1`, the TGI in assay [13] is 37.5 µM; in assay [2], 45.1 µM; in assay [3], 31.6 µM; in assay [4], 45.2 µM; in [5], 34.3 µM; in assay [6], 33.6 µM. The total growth inhibition concentration (TGI) came out at 49.3 µM in [7]; 34.6 µM in assay [8]; 34.9 µM in [10]; 51.1 µM in [11]; 27.1 µM in assay [12].
Regarding `CC(C)C1OCC(CO)CO1` (stereo not drawn), the TGI in [1], in assay [13], in [2], in [3], in [4] and in [5] was over 100 µM throughout. Also, the concentration for total growth inhibition (TGI) in assay [6], in [7], in assay [8], in [10] and in assay [11] was over 100 µM in each case.
`C=CCCCC1(C)CCCCNC1=O` (stereo not drawn): the total growth inhibition concentration (TGI) in assay [1], in assay [13], in assay [2], in [3], in [5] and in assay [6] was over 10 µM each time. In addition, the TGI in assay [7], in assay [8], in assay [9], in assay [10], in assay [11] and in assay [12] was over 10 µM each time.
For `COc1ccc(C2=C(OC(C)=O)c3cccn3-c3ccccc3S2)cc1`, the TGI is over 10 µM in assay [1]; over 10 µM in assay [2]; over 10 µM in [4]; over 10 µM in assay [6]; 7.73 µM in assay [8]; 6.44 µM in assay [10]. For the same compound, the total growth inhibition concentration (TGI) in [11] and in [12] was over 10 µM each time.
In the case of `CC(=O)CN=C(C)NNc1ccc([N+](=O)[O-])cc1[N+](=O)[O-]`, the TGI in assay [1], in [13], in assay [2], in assay [3], in assay [5] and in assay [6] was over 100 µM in each case. Moreover, the total growth inhibition concentration (TGI) in [7], in [8], in assay [9], in assay [10], in assay [11] and in assay [12] was over 100 µM throughout.
With `Nc1nc(Cl)c2ncn(Cc3ccccc3CCl)c2n1`, the TGI in assay [1] worked out at 10.2 µM; in assay [13], 38.2 µM; in assay [2] it was 24.3 µM; in assay [3], 31.1 µM; in [4], 31.1 µM; in [5] it was 13.4 µM. Further, the TGI is 52.1 µM in [6]; 39.8 µM in assay [7]; 8.84 µM in [8]; over 100 µM in assay [9]; 6.57 µM in assay [11]; over 100 µM in [12].
With `Cc1cccc(C)c1NC(=S)/N=C/C1=C(O)c2ccccc2C1=O`, the total growth inhibition concentration (TGI) was over 59.9 µM in [13]; over 100 µM in assay [2]; over 94.4 µM in assay [3]; over 65.8 µM in assay [4]; over 100 µM in assay [5]; over 29.3 µM in assay [6]. Besides, the TGI in assay [7] was over 100 µM; in assay [8], 59.2 µM; in assay [9], over 100 µM; in assay [10], over 100 µM; in [11] it was over 100 µM; in assay [12], over 79.4 µM.
With `COc1cc(CNC(=O)CCCCCCCC/C=C/Br)ccc1O`, the TGI in assay [1], in assay [13], in assay [2], in assay [3], in [4] and in assay [5] was over 10 µM throughout. For the same compound, the concentration for total growth inhibition (TGI) in [6], in [8], in [9], in [10], in assay [11] and in assay [12] was over 10 µM each time.
With `CC(C)CCNC(=O)c1ccc(CNC(=O)/C=C/c2ccc(-c3ccccc3[N+](=O)[O-])o2)cc1`, the TGI in assay [2], in assay [5], in [6], in assay [7], in [8] and in [9] was over 100 µM in each case. For the same compound, the total growth inhibition concentration (TGI) in assay [10] and in assay [11] was over 100 µM throughout.
Regarding `Nc1nc(=O)n(C2OC(CO)C(O)C2O)cc1F` (stereo not drawn), the TGI in [13] is over 100 µM; in assay [2] it was over 100 µM; in assay [3] it was over 40.9 µM; in [4] it was 5.9 µM; in assay [5] it was over 100 µM; in assay [6], over 100 µM. Also, the TGI in assay [7] was over 81.3 µM; in [8], over 100 µM; in assay [9] it was over 100 µM; in assay [10] it was over 100 µM; in [11], over 100 µM; in [12] it was over 100 µM.
On to `Cc1ccc(C2SC(N)=Nc3c2c(C)nn3C(=O)c2ccncc2)cc1` (stereo not drawn), for which the TGI in [1], in [13], in [2], in [4], in assay [5] and in [6] was over 10 µM each time. For the same compound, the total growth inhibition concentration (TGI) in [7], in [8], in assay [9], in assay [10], in [11] and in [12] was over 10 µM in each case.
Turning to `COc1cc2cc(C(=O)N3CC(COS(C)(=O)=O)c4c3cc([N+](=O)[O-])c3ccccc43)[nH]c2c(OC)c1OC` (stereo not drawn), the TGI is over 31.6 µM in assay [13]; over 31.6 µM in [2]; over 31.6 µM in assay [3]; over 31.6 µM in assay [4]; over 31.6 µM in assay [5]; over 100 µM in assay [6]. Besides, the TGI in [7] was over 31.6 µM; in [8] it was over 31.6 µM; in assay [9] it was over 100 µM; in assay [10], over 100 µM; in assay [11], over 31.6 µM; in assay [12], over 31.6 µM.
Turning to `COc1cc(/C=C2\NC(=O)N(/C=C3\C(=O)Oc4ccccc4C3=O)C2=O)ccc1O`, the concentration for total growth inhibition (TGI) in assay [13], in assay [2], in assay [3], in assay [4], in assay [5] and in assay [6] was over 100 µM in each case. The TGI in assay [7] is over 100 µM; in assay [8] it was over 100 µM; in assay [9] it was over 100 µM; in assay [10], 99.2 µM; in assay [11], over 100 µM; in assay [12], over 100 µM.
`Nc1ncnc2c1ncn2CC(OCP(=O)(O)O)Oc1ccccc1` (stereo not drawn): the TGI in assay [13], in assay [2], in assay [3], in assay [4], in assay [5] and in assay [6] was over 100 µM in each case. Also, the TGI in assay [7], in [9], in assay [10] and in assay [11] was over 100 µM in each case.
On to `Nc1nc(Cl)cc(Nc2ccc3c(c2)CCC3)n1`, for which the TGI in assay [1], in assay [13], in [2], in [3], in assay [4] and in [5] was over 100 µM throughout. Besides, the TGI in assay [6], in [7], in assay [8], in assay [9], in [11] and in assay [12] was over 100 µM each time.
For the compound `CC(=O)OCCn1c(Cc2ccc([N+](=O)[O-])cc2)nn(C(C)=O)c1=O`, the concentration for total growth inhibition (TGI) in assay [1], in assay [13], in assay [2], in assay [3], in [4] and in assay [5] was over 100 µM in each case. Besides, the TGI in [6], in assay [7], in assay [8], in assay [9], in [11] and in assay [12] was over 100 µM throughout.
Take `CN1c2ccccc2C2c3c(O)ccc(O)c3C=C([N+](=O)[O-])C21` (stereo not drawn): the total growth inhibition concentration (TGI) was 4.45 µM in assay [13]; 0.346 µM in [2]; 7.63 µM in assay [3]; 5.84 µM in [4]; 4.84 µM in assay [5]; 13.5 µM in [6]. Moreover, the total growth inhibition concentration (TGI) is 5.87 µM in assay [7]; 5.61 µM in assay [8]; over 100 µM in assay [9]; 15.5 µM in assay [10]; 2.8 µM in assay [11]; 5.87 µM in assay [12].
Regarding `CC(O[Si](C)(C)C(C)(C)C)[C@H](NC(=O)OCC(Cl)(Cl)Cl)C(=O)O` (stereo partly drawn), the TGI in assay [1], in [13], in [2], in assay [3], in [5] and in [6] was over 100 µM each time. Besides, the concentration for total growth inhibition (TGI) in assay [7], in [8], in [9], in [10], in assay [11] and in assay [12] was over 100 µM each time.
